Tests used:
Assay type in all cases: in vivo
[1] = system: Rhipicephalus (Boophilus) microplus larvae (strain Parkhurst, resistant against synthetic pyrethroids); assay: Rhipicephalus (Boophilus) microplus in-vitro contact test, larval cattle tick; settings: 1 μg/cm^2 (=100 g/ha), after 48 hours; for pest or weed control at 1 µg/cm2: Rhipicephalus microplus, read-out: efficacy (larvae dead or moribund)
Protocol: Rhipicephalus (Boophilus) Microplus—In-Vitro Contact Tests Larval Cattle Tick (Strain Parkhurst, Resistant Against Synthetic Pyrethroids
(§1) 9 mg compound is solved in 1 mL acetone and diluted with acetone to the desired concentration. 250 μL of the test solution is filled in 25 mL glass test tubes and homogeneously distributed on the inner walls by rotation and tilting on a shaking device (2 h at 30 rpm). With a compound concentration of 900 ppm, an inner surface of 44.7 cm^2 and a homogeneous distribution, a dose of 5 μg/cm^2 is achieved.
After the solvent has evaporated, each test tube is filled with 20-50 cattle tick larvae (Rhipicephalus microplus), closed with a perforated lid and incubated in a horizontal position at 85% relative humidity and 27° C. in an incubator. After 48 hours efficacy is determined. The larvae are patted on the ground of the tubes and negative geotactic behavior is recorded.

[2] = system: adult cat fleas (Ctenocephalides felis); assay: Ctenocephalides felis in-vitro contact test, adult cat flea; settings: Ctenocephalides felis; 1 μg/cm^2 (=100 g/ha), after 48 hours; read-out: efficacy (fleas dead or moribund)
Protocol: Ctenocephalides Felis—In-Vitro Contact Tests Adult Cat Flea
as §1
(§2) After the solvent has evaporated, each test tube is filled with 5-10 adult cat fleas (Ctenocephalides felis), closed with a perforated lid and incubated in a lying position at room temperature and relative humidity. After 48 hours efficacy is determined. The fleas are patted on the ground of the tubes and are incubated on a heating plate at 45-50° C. for at most 5 minutes. Immotile or uncoordinated moving fleas, which are not able to escape the heat by climbing upwards, are marked as dead or moribund.
An efficacy of 100% means all fleas are dead or moribund; 0% means no fleas are dead or moribund.

[3] = system: adult brown dog ticks (Rhipicephalus sanguineus); assay: Rhipicephalus sanguineus in-vitro contact test, adult brown dog ticks; settings: Rhipicephalus sanguineus; 1 μg/cm^2 (=100 g/ha), after 48 hours; read-out: efficacy (ticks dead or moribund)
Protocol: Rhipicephalus sanguineus—In-Vitro Contact Tests with Adult Brown Dog Ticks
as §1
as §2, with “brown dog ticks (Rhipicephalus sanguineus),” for “cat fleas (Ctenocephalides felis),”, “ticks” for “fleas”, “ticks,” for “fleas,”
An efficacy of 100% means all ticks are dead or moribund; 0% means no ticks are dead or moribund.

[4] = system: green peach aphid (Myzus persicae); assay: Myzus persicae spray test (MYZUPE); settings: 120 h; for mortality at 100 g/ha: in Brassica rapa, foliar; for Emax at 4 g/ha / Emax at 20 g/ha / Emax at 100 g/ha: MYZUPE, 5 dat, read-out: % Efficacy; for Emax at 4 g/ha: 4 g ai/ha; for Emax at 20 g/ha: 20 g ai/ha; for Emax at 100 g/ha: 100 g ai/ha
Protocol: Myzus persicae—Spray Test
(§3) Solvent: 78.0 parts by weight acetone • 1.5 parts by weight dimethylformamide
(§4) Emulsifier: alkylarylpolyglycol ether
(§5) To produce a suitable preparation of active compound, 1 part by weight of active compound is mixed with the stated amount of solvents and is diluted with water, containing an emulsifier concentration of 1000 ppm, to the desired concentration. Further test concentrations are prepared by dilution with emulsifier containing water.
Chinese cabbage (Brassica pekinensis) leaf disks infected with all instars of the green peach aphid (Myzus persicae), are sprayed with a preparation of the active ingredient of the desired concentration.
After 5 days mortality in % is determined. 100% means all aphids have been killed and 0% means none of the aphids have been killed.
Myzus persicae—Spray Test (MYZUPE
After the specified period of time, mortality in % is determined. 100% means all aphids have been killed and 0% means none of the aphids have been killed.

[5] = system: larvae of the southern green stink bug (Nezara viridula); assay: Nezara viridula spray test; settings: for mortality at 500 g/ha: Nezara viridula, in Hordeum vulgare, 96 h; for mortality: 500 g/ha, barley plants, after 4 days
Protocol: Nezara viridula—Spray Test
(§6) Solvent: 78.0 parts by weight of acetone • • 1.5 parts by weight of dimethylformamide
as §4
as §5, with “solvent,” for “solvents”, “and the concentrate” for “and”
Barley plants (Hordeum vulgare) are sprayed with a test solution containing the desired concentration of the active ingredient and are infested with larvae of the southern green stink bug (Nezara viridula).
After 4 days mortality in % is determined. 100% means all the stink bugs have been killed; 0% means none of the stink bugs have been killed.

[6] = system: fall armyworm larvae (Spodoptera frugiperda); assay: Spodoptera frugiperda spray test (SPODFR); settings: 168 h; for mortality at 100 g/ha: in Zea mays
Protocol: Spodoptera frugiperda—Spray Test
as §3, §4, §5
Maize (Zea mays) leaf sections are sprayed with a preparation of the active ingredient of the desired concentration. Once dry, the leaf sections are infested with fall armyworm larvae (Spodoptera frugiperda).
After 7 days mortality in % is determined. 100% means all caterpillars have been killed and 0% means none of the caterpillars have been killed.
Spodoptera frugiperda—Spray Test (SPODFR
After the specified period of time, mortality in % is determined. 100% means all caterpillars have been killed and 0% means none of the caterpillars have been killed.

[7] = system: brown planthopper (Nilaparvata lugens); assay: Nilaparvata lugens spray test; settings: for mortality at 500 g/ha: Nilaparvata lugens, in Oryza sativa, 96 h; for mortality: 500 g/ha, rice plants, after 4 days
Protocol: Nilaparvata lugens—Spray Test
as §6, §4, §5
Rice plants (Oryza sativa) are sprayed with a preparation of the active ingredient of the desired concentration and the plants are infested with the brown planthopper (Nilaparvata lugens).
After 4 days mortality in % is determined. 100% means all planthoppers have been killed and 0% means none of the planthoppers have been killed.

[8] = system: larvae of the banded cucumber beetle (Diabrotica balteata); assay: Diabrotica balteata spray test; settings: 100 g/ha (=32 μg/well), wheat seeds, after 7 days; for pest or weed control at 32 µg/disc, 100 g/ha: Diabrotica balteata, 168 h, read-out: efficacy (seedlings grown)
Protocol: Diabrotica balteata—Spray Test
as §6, §4
as §5, with “solvent,” for “solvents”, “and the concentrate” for “and”
Soaked wheat seeds (Triticum aestivum) are placed in a multiple well plate filled with agar and some water and are incubated for 1 day to germinate (5 seeds per well). The germinated wheat seeds are sprayed with a test solution containing the desired concentration of the active ingredient. Afterwards each unit is infected with 10-20 larvae of the banded cucumber beetle (Diabrotica balteata).
After 7 days efficacy in % is determined. 100% means all the seedlings have grown up like in the untreated, uninfected control; 0% means none of the seedlings have grown.

| Structure (SMILES) | pest or weed control at 1 µg/cm2 [1] | pest or weed control at 1 µg/cm2, 100 g/ha [3] | mortality at 100 g/ha [4] | mortality at 500 g/ha [5] | mortality at 100 g/ha [6] | mortality at 500 g/ha [7] | pest or weed control at 32 µg/disc, 100 g/ha [8] | further results |
| --- | --- | --- | --- | --- | --- | --- | --- | --- |
| CNC(=O)c1cnc(-n2nc(C)nc2[C@H](C)NC(=O)c2cc(C(F)(F)F)cc(C(F)(F)F)c2)cn1 [Example I-011] | 100% | 100% | 90% | 100% | 100% |  |  | pest or weed control at 1 µg/cm2 [2]: 100% |
| Cc1nc([C@H](C)NC(=O)c2cc(C(F)(F)F)cc(C(F)(F)F)c2)n(-c2cnc(C(N)=O)cn2)n1 [Example I-012] | 100% | 100% | 100% | 100% | 100% | 100% |  |  |
| Cc1nc([C@H](C)NC(=O)c2cc(C(F)(F)F)cc(C(F)(F)F)c2)n(-c2cnc(C(=O)NC3CC3)cn2)n1 [Example I-014] | 100% | 100% | 90% | 90% | 100% | 100% |  |  |
| C[C@H](NC(=O)c1cc(OC(F)(F)F)cc(S(C)(=O)=O)c1)c1ncnn1-c1cnc(C(=O)N(C)C)cn1 [Example I-017] | 100% | 100% | 100% | 100% |  | 100% | 100% | pest or weed control at 1 µg/cm2 [2]: 100%; Emax at 4 g/ha [4]: 70%; Emax at 20 g/ha [4]: 90%; Emax at 100 g/ha [4]: 100% |
| C[C@H](NC(=O)c1cc(OC(F)(F)F)cc(S(C)(=O)=O)c1)c1ncnn1-c1cnc(C(=O)NC2CC2)cn1 [Example I-020] | 100% |  | 100% | 100% |  | 100% | 100% |  |
| C[C@H](NC(=O)c1cc(OC(F)(F)F)cc(OC(F)(F)F)c1)c1ncnn1-c1cnc(C(=O)N(C)C2CC2)cn1 [Example I-026] | 100% | 100% |  | 100% | 100% | 100% | 100% | pest or weed control at 1 µg/cm2 [2]: 100% |
| C[C@H](NC(=O)c1cc(OC(F)(F)F)cc(S(C)(=O)=O)c1)c1ncnn1-c1cnc(C(N)=O)cn1 [Example I-028] | 90% |  | 90% | 100% | 100% |  | 100% |  |
| Cc1nc([C@H](C)NC(=O)c2cc(OC(F)(F)F)cc(OC(F)(F)F)c2)n(-c2cnc(C(=O)N(C)C3CC3)cn2)n1 [Example I-031] | 100% |  |  |  | 100% | 90% |  | pest or weed control at 1 µg/cm2 [2]: 80% |
| Cc1nc([C@H](C)NC(=O)c2cc(OC(F)(F)F)cc(C3CC3)c2)n(-c2cnc(C(=O)N(C)C3CC3)cn2)n1 [Example I-032, N-Cyclopropyl-5-(5-{(1S)-1-[3-cyclopropyl-5-(trifluoromethoxy)benzamido]ethyl}-3-methyl-1H-1,2,4-triazol-1-yl)-N-methylpyrazine-2-carboxamide] | 100% | 80% | 90% |  | 100% | 100% |  | pest or weed control at 1 µg/cm2 [2]: 100% |
| Cc1nc([C@H](C)NC(=O)c2cc(OC(F)(F)F)cc(OC(F)(F)F)c2)n(-c2cnc(C(N)=O)cn2)n1 [Example I-033] |  |  |  | 100% | 100% |  | 100% |  |
| CNC(=O)c1cnc(-n2nc(C)nc2[C@H](C)NC(=O)c2cc(OC(F)(F)F)cc(OC(F)(F)F)c2)cn1 [Example I-034] | 100% | 80% |  | 100% | 100% |  | 80% |  |
| Cc1nc([C@H](C)NC(=O)c2cc(C(F)(F)F)cc(S(C)(=O)=O)c2)n(-c2cnc(C(N)=O)cn2)n1 [Example I-051] |  |  |  |  |  |  |  | efficacy (larvae dead or moribund) [1]: 100%; mortality [5]: 90% |
| C[C@H](NC(=O)c1cc(F)cc(OC(F)(F)F)c1)c1ncnn1-c1cnc(C(N)=O)cn1 [Example I-068] |  |  |  |  |  |  |  | mortality [5]: 90% |
| Cc1nc([C@H](C)NC(=O)c2cc(F)cc(OC(F)(F)F)c2)n(-c2cnc(C(N)=O)cn2)n1 [Example I-069] |  |  |  |  |  |  |  | mortality [7]: 90% |
| C[C@H](NC(=O)c1cc(C(F)F)cc(C(F)F)c1)c1nc(C2CC2)nn1-c1cnc(C(N)=O)cn1 [Example I-071] |  |  |  |  |  |  |  | efficacy (seedlings grown) [8]: 100%; mortality [5]: 90%; mortality [7]: 90% |
| C[C@H](NC(=O)c1cc(OC(F)(F)F)cc(C2(C#N)CC2)c1)c1nc(C2CC2)nn1-c1cnc(C(N)=O)cn1 [Example I-072] |  |  |  |  |  |  |  | efficacy (seedlings grown) [8]: 100%; mortality [5]: 90%; mortality [7]: 90% |
| C[C@H](NC(=O)c1cc(C(F)F)nc(C(F)F)c1)c1nc(C2CC2)nn1-c1cnc(C(N)=O)cn1 [Example I-094, 5-[5-[(1S)-1-[[2,6-bis(difluoromethyl)pyridine-4-carbonyl]amino]ethyl]-3-cyclopropyl-1,2,4-triazol-1-yl]pyrazine-2-carboxamide] |  |  |  | 100% | 83% |  | 100% |  |
| C=C(CC)c1ccc(C2C=CC=C2[C@H](C)CC(=C)c2cc(C)cc(C(C)(C)C)c2)cc1 (stereo partly shown) [I-038 Known from WO2019206799, reference compound] |  |  |  |  |  |  |  | Emax at 4 g/ha [4]: 0%; Emax at 20 g/ha [4]: 70%; Emax at 100 g/ha [4]: 100%; Emax at 4 g/ha ([6]; SPODFR, 4 g ai/ha, 7 dat, read-out: % Efficacy): 0%; Emax at 20 g/ha ([6]; SPODFR, 20 g ai/ha, 7 dat, read-out: % Efficacy): 100%; Emax at 100 g/ha ([6]; SPODFR, 100 g ai/ha, 7 dat, read-out: % Efficacy): 100% |

Source: patent US20240368125A1, “NOVEL PYRAZINYL-TRIAZOLE COMPOUNDS AS PESTICIDES” (Bayer Aktiengesellschaft, priority 2021, published 2024)
